Read-outs that look alike come from different tables or passages of the source.
Assays:
(Dα1)3(β2)2 nAChR = target: T1, (Dα1)3(β2)2 nAChR (Drosophila melanogaster, UniProt P09478+P09484); experiment: two-electrode voltage clamp, Xenopus oocytes, agonist concentration-response; assay type: cell-based
T1 construct: gene nAChRalpha1; fruitfly Dα1 and chicken β2 cDNAs in pcDNA3.1(+), cRNA mixed 5:1 (Dα1:β2), Xenopus laevis oocytes; hybrid pentamer with Dα1/Dα1 and Dα1/β2 interfaces
Source text: two-electrode voltage clamp, Xenopus oocytes, agonist concentration-response on (Dα1)3(β2)2 nAChR

(Dα1)2(β2)3 nAChR = target: T2, (Dα1)2(β2)3 nAChR (Drosophila melanogaster, UniProt P09478+P09484); experiment: as above; assay type: cell-based
T2 construct: gene nAChRalpha1; fruitfly Dα1 and chicken β2 cDNAs in pcDNA3.1(+), cRNA mixed 1:5 (Dα1:β2), Xenopus laevis oocytes; hybrid pentamer with Dα1/β2 interfaces
T2 sequence (P09478 22-567): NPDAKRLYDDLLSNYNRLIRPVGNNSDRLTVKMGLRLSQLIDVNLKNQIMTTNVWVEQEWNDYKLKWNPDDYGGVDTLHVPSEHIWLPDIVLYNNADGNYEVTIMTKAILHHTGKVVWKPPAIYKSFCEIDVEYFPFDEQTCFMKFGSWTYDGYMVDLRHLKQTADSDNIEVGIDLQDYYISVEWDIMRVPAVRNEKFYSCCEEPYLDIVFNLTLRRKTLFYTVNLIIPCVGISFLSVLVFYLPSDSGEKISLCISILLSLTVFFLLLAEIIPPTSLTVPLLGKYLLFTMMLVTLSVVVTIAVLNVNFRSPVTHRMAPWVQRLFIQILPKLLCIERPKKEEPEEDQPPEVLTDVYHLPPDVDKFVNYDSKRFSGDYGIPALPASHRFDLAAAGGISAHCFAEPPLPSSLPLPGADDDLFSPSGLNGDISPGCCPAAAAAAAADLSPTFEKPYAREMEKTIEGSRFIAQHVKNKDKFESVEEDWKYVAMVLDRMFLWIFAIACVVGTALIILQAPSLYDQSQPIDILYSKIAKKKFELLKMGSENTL
T2 sequence (P09484 19-491): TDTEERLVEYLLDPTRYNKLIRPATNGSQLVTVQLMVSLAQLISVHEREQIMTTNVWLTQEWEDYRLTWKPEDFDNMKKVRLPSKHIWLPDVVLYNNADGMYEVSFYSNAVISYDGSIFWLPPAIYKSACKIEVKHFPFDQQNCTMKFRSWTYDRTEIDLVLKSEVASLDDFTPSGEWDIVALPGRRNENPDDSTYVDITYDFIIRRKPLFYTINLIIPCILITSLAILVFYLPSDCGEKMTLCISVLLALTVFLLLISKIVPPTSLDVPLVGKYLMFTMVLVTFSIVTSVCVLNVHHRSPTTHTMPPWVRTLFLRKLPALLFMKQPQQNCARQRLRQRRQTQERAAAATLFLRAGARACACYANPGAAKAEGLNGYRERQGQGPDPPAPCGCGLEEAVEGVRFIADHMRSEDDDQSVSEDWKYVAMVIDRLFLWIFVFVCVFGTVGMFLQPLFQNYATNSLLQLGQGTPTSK
Source text: two-electrode voltage clamp, Xenopus oocytes, agonist concentration-response on (Dα1)2(β2)3 nAChR

T1 sequence (P09478 22-567): as the sequence (P09478 22-567) above
T1 sequence (P09484 19-491): as the sequence (P09484 19-491) above

CC(=O)OCC[N+](C)(C)C [ACh]
EC50 ((Dα1)3(β2)2 nAChR; read-out: (Dα1)3(β2)2 / pEC50 (converted)): 155 nM | EC50 ((Dα1)2(β2)3 nAChR; read-out: (Dα1)2(β2)3 / pEC50 (converted)): 162 nM

O=[N+]([O-])NC1=NCCN1Cc1ccc(Cl)nc1 [imidacloprid]
EC50 ((Dα1)3(β2)2 nAChR; read-out: Imidacloprid / (Dα1)3(β2)2 / pEC50 (converted)): 162 nM | EC50 ((Dα1)2(β2)3 nAChR; read-out: Imidacloprid / (Dα1)2(β2)3 / pEC50 (converted)): 112 nM

N#C/N=C1\SCCN1Cc1ccc(Cl)nc1 [thiacloprid]
EC50 ((Dα1)3(β2)2 nAChR; read-out: Thiacloprid / (Dα1)3(β2)2 / pEC50 (converted)): 45.7 nM | EC50 ((Dα1)2(β2)3 nAChR; read-out: Thiacloprid / (Dα1)2(β2)3 / pEC50 (converted)): 24.5 nM

From PMC7200709, “The mechanism of loop C-neonicotinoid interactions at insect nicotinic acetylcholine receptor α1 subunit predicts resistance emergence in pests” (Scientific Reports, 2020)
